Structures are written as SMILES. pKi: −log10 of the molar value. Where a name gives a salt, the structure may show the parent alone.

The source of these data is patent US12486278B2, “MASP-2 inhibitors and methods of use” (Omeros Corporation, priority 2019, dated 2025).

This assay deals with T1, MASP-2 (CCP1-CCP2-SP) (Homo sapiens, UniProt O00187).
T1 construct: 15 μL of Enzyme MASP-2 (CCP1-CCP2-SP) in Assay Buffer
T1 sequence (O00187 445-686 limits assumed): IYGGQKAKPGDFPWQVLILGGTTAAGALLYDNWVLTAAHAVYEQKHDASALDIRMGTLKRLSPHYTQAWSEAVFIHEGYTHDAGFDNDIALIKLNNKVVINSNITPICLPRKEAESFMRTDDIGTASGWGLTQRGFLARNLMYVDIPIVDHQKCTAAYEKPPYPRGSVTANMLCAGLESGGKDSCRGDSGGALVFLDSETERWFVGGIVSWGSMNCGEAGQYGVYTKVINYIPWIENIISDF
T1 sequence (O00187 298-444 partner limits assumed): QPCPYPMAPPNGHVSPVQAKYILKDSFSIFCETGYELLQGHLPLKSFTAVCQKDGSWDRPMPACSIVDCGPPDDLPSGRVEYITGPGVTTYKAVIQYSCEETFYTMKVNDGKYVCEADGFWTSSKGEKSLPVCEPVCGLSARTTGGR
In words: Enzymatic Assay for MASP-2 (fluorogenic substrate). Particulars: fluorogenic substrate based on C2 cleavage site; room temperature, 20 min; 20 mM HEPES pH 7.4, 140 mM NaCl, 0.1% Tween 20. The assay is classed as biochemical. The method in brief: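 Fluorogenic substrate built on the C2 cleavage site, in 20 mM HEPES pH 7.4, 140 mM NaCl, 0.1% Tween 20, run at room temperature for 20 min before an acetic acid stop. Fluorescence normalised to DMSO-only and no-enzyme controls; IC50 taken as equivalent to Ki, with tight- or slow-binding inhibitors treated separately.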
Broadly, the pKi is the negative decadic logarithm of the Ki, by convention in mol/L. On to `C[C@H](NC(=O)[C@H]1C[C@H](Cc2ccc(Cl)s2)CN1)C(=O)NCc1cnc2c(c1)c(Cl)cn2C` [Compound I-84, (2R,4R)—N—((S)-1-(((3-Chloro-1-Methyl-1H-Pyrrolo[2,3-B]Pyridin-5-Yl)Methyl)Amino)-1-Oxopropan-2-Yl)-4-((5-Chlorothiophen-2-Yl)Methyl)Pyrrolidine-2-Carboxamide Dihydrochloride], for which the pKi was more than 6.30.

With `Cc1nc(N)ccc1CNC(=O)[C@H](C)NC(=O)[C@H]1C[C@H](Cc2ccc3c(C)cccc3c2)CN1` [Compound I-85, (2R,4S)—N—((S)-1-(((6-Amino-2-Methylpyridin-3-Yl)Methyl)Amino)-1-Oxopropan-2-Yl)-4-((5-Methylnaphthalen-2-Yl)Methyl)Pyrrolidine-2-Carboxamide Dihydrochloride], the pKi is more than 6.30.

`Cc1nc(N)ccc1CNC(=O)[C@H](C)NC(=O)[C@H]1C[C@H](Cc2ccc(C#N)s2)CN1` [Compound I-86, (2R,4R)—N—((S)-1-(((6-Amino-2-Methylpyridin-3-Yl)Methyl)Amino)-1-Oxopropan-2-Yl)-4-((5-Cyanothiophen-2-Yl)Methyl)Pyrrolidine-2-Carboxamide Dihydrochloride] had a pKi of more than 6.30.

The molecule `Cc1nc(N)ccc1CNC(=O)[C@H](C)NC(=O)[C@H]1C[C@H](Cc2cc(Cl)cs2)CN1` [Compound I-87, (2R,4R)—N—((S)-1-(((6-Amino-2-Methylpyridin-3-Yl)Methyl)Amino)-1-Oxopropan-2-Yl)-4-((4-Chlorothiophen-2-Yl)Methyl)Pyrrolidine-2-Carboxamide Dihydrochloride] had a pKi of more than 6.30.

Molecule `Cc1nc(N)ccc1CNC(=O)[C@H](C)NC(=O)[C@H]1C[C@H](Cc2ccc(F)c(Cl)c2F)CN1` [Compound I-88, (2R,4S)—N—((S)-1-(((6-Amino-2-Methylpyridin-3-Yl)Methyl)Amino)-1-Oxopropan-2-Yl)-4-(3-Chloro-2,4-Difluorobenzyl)Pyrrolidine-2-Carboxamide Dihydrochloride] showed a pKi of more than 6.30.

In the case of `Cc1nc(N)ccc1CNC(=O)[C@H](C)NC(=O)[C@H]1C[C@H](Cc2ccc(C(F)(F)F)s2)CN1` [Compound I-89, (2R,4R)—N—((S)-1-(((6-Amino-2-Methylpyridin-3-Yl)Methyl)Amino)-1-Oxopropan-2-Yl)-4-((5-(Trifluoromethyl)Thiophen-2-Yl)Methyl)Pyrrolidine-2-Carboxamide Dihydrochloride], the pKi was more than 6.30.

`C[C@H](NC(=O)[C@H]1C[C@@H](c2ccccc2)CCN1)C(=O)NCc1cc2cnccc2[nH]1` [Compound I-90, (2R,4S)—N—((S)-1-(((1H-Pyrrolo[3,2-C]Pyridin-2-Yl)Methyl)Amino)-1-Oxopropan-2-Yl)-4-Phenylpiperidine-2-Carboxamide Di-Trifluoroacetate]: the pKi was more than 6.30.

`C[C@H](NC(=O)[C@H]1C[C@@H](c2ccccc2)CCN1)C(=O)NCc1ccc(C(=N)N)s1` [Compound I-91, (2R,4S)—N—((S)-1-(((5-carbamimidoylthiophen-2-yl)methyl)amino)-1-oxopropan-2-yl)-4-phenylpiperidine-2-carboxamide di-trifluoroacetate] had a pKi of more than 6.30.

`C[C@H](NC(=O)[C@H]1C[C@@H](c2ccccc2)CCN1)C(=O)NCc1ccc(C#N)s1` [Compound I-92, (2R,4S)—N—((S)-1-(((5-Cyanothiophen-2-yl)methyl)amino)-1-oxopropan-2-yl)-4-phenylpiperidine-2-carboxamide hydrochloride] showed a pKi of 5.00 to 5.60.

In turn, `C[C@H](NC(=O)[C@H]1C[C@H](c2cccc(CO)c2)CN1)C(=O)NCc1ccc(C(=N)N)cc1` [Compound I-94, (2R,4R)—N—((S)-1-((4-Carbamimidoylbenzyl)Amino)-1-Oxopropan-2-Yl)-4-(3-(Hydroxymethyl)Phenyl)Pyrrolidine-2-Carboxamide Di-Trifluoroacetate] gave a pKi of more than 6.30.
